Data from patent US5773412A, “Use of peptides for altering αV β3 -mediated binding” (priority 1995, dated 1998).
“Also recorded” adds a separate entry of the source. Where a SMILES comes first, the peptide text is derived from it. Bridges are numbered along the chain shown (N, C = ends). [ ]: non-standard residue; d: D form. Tic = O=C(O)[C@@H]1Cc2ccccc2CN1; Pen = CC(C)(S)[C@H](N)C(=O)O; Mpa = O=C(O)CCS

What was measured:
[1] = Parathyroid hormone-induced hypercalcemia in mice; type: in vivo; details: parathyroidectomized Swiss-Webster mice, 4 hr peptide infusion, 0.2 mg PTH/kg i.v.; in words
Source text: Parathyroid hormone (PTH) activates osteoclasts, which are involved in bone resorption. Associated with the increased osteoclast activity is an increase in serum calcium. The PTH-induced hypercalcemia assay measures the level of serum calcium, which is an indication of bone resorption in a subject (Fischer et al., Endocrinology 132:1411-1413 (1993), which is incorporated herein by reference).
Swiss-Webster mice, which had been parathyroidectomized two weeks prior to beginning the assay, were obtained from Taconic Lab Animals and Services (Germantown N.Y.). Femoral vein catheters (PE-50 fused with PE10 polyethylene tubing; Becton Dickinson; Parsippany, N.J.) were installed in the mice, flushed and locked with heparinized saline (1:10), sutured to adjacent muscle and internalized within the inguinal space of the incision before closing the incision with wound clips. […]
The experiment was initiated by feeding the mice a calcium-deficient diet overnight, then injecting the mice the following morning with a bolus of 0.2 mg PTH/kg (hPTH 1-34; Bachem; Torrance Calif.), intravenously. […] Various doses of a peptide or vehicle were infused into an animal for 4 hr, then ionized serum calcium again was measured. […] Serum calcium measurements were expressed as the difference between the value 30 min before the PTH pulse and 4 hr after peptide infusion was started. […]

αv β3 receptor = target: T1, αv β3 receptor (Homo sapiens, UniProt P05106+P06756); test: αvβ3 competitive ELISA; type: binding; details: IC50 in αvβ3 ELISA / JY cells versus αvβ5 and α5β1 ELISAs; in words
T1 construct: The αv β3 receptor was purified from octylglucopyranoside-extracted human placenta; from tissue; host or cells: human placenta
Procedure: Peptide binding to purified human αv β5 and αv β3, which are VnR's, and to α5 β1 which is a FnR, was determined using competitive ELISA assays as described below.
Peptide binding to purified αv β3 receptor was determined by using a competitive ELISA, in which αv β3 receptor was immobilized and the binding of solubilized VN, in the presence of various concentrations of peptide analogue, was detected using a monoclonal mouse IgG anti-VN antibody and a labelled anti-mouse IgG conjugate.
96 well microtiter plates were coated overnight at RT with 100 μl/well of αv β3 receptor (0.5 μg/ml in 1X TBS, 4 mM octylglucoside, 1 mM CaCl2). The wells were blocked with 200 μl/well of 1% BSA in 1X TBS, 1 mM CaCl2 for at least 30 min. The plates were washed 2× with 1X TBS, 1 mM CaCl2. 50 μl peptide in 1X TBS, 1 mM CaCl2, 0.05% TWEEN 20 (polyoxyethylenesorbitan monolaurate) was added in 10-fold serial dilutions. 50 μl of Vn in the same buffer then was added to each well.
The plates were incubated for 3 hr at RT, then washed 3× with 1X TBS, 0.05% TWEEN 20 (polyoxyethylenesorbitan monolaurate). 100 μl of 8E6 (Telios) diluted to 1:6000 in 1X TBS, 0.05% TWEEN 20 (polyoxyethylenesorbitan monolaurate) was added to the wells and the plates were incubated for 1 hr at RT. Plates were washed 3× with 1X TBS, 0.05% TWEEN 20 (polyoxyethylenesorbitan monolaurate). Affinity purified goat anti-mouse IgG conjugated to horseradish peroxidase (100μl/well; BioRad; Hercules Calif.) was added to each well and incubated for 1 hr at RT. Plates were washed 3× with 1X TBS, 0.05% TWEEN 20 (polyoxyethylenesorbitan monolaurate). 100 μl/well of substrate mixture (10 mg O-phenylenediamine in 25 ml 0.1M citrate-phosphate buffer, pH 5.0, 6 μl 30% H2 O2) was added to the plates and allowed to develop. The development process was stopped by adding 50 μl to 4N H2 SO4 to each well. The plates were read at 490 nm and the data analyzed by four parameter fit.

[2] = tested on: osteoclasts; αv β3 integrin receptor; test: Series of assays of Example II (summary of potency and selectivity, FIG. 2); details: in words
[3] = Half-life of peptide in serum; type: in vivo; details: in words
Source text: Increased stability of a disulfide bonded peptide of the invention also can be conferred by incorporating a hydrophobic amino acid residue such as phenylalanine at position X1 or X8 or both X1 and X8 in an RGDNTic (SEQ ID NO: 31) or RGDDV (SEQ ID NO: 1) pharmacophore as disclosed herein. The presence of such a residue can stabilize the disulfide bond against enzymatic degradation (see Bauer et al., Life Sciences 31:1133-1140 (1982)). […] In addition, the half-life of a peptide in a subject can be determined, for example, by high performance liquid chromatography (HPLC) of serum samples collected from the subject at various times following administration of the peptide. One skilled in the art would know how to select appropriate elution buffers for HPLC based on the physico-chemical properties of a particular peptide.

osteoclasts = details: in vitro; Sato et al., EP 437,367; cited from earlier work
[4] = in vivo; Fisher et al.; cited from earlier work
αv β3 integrin receptor = details: Choi et al. 1994; cited from earlier work

CC(C)[C@@H]1NC(=O)[C@H](CC(=O)O)NC(=O)[C@H](CC(=O)O)NC(=O)CNC(=O)[C@H](CCCNC(=N)N)NC(=O)CCSSC[C@@H](C(N)=O)NC1=O [compound 191] ([Mpa]RGDDVC-NH2; disulfide 1-7)
PTH-induced rise in serum ionized calcium [1]: decreased the PTH-induced rise in serum ionized calcium in a dose responsive manner

CC(=O)N[C@H]1CSSC(C)(C)[C@@H](C(N)=O)NC(=O)[C@@H]2CCCN2C(=O)[C@H](CC(N)=O)NC(=O)[C@H](CC(=O)O)NC(=O)CNC(=O)[C@H](CCCNC(=N)N)NC1=O [compound 228] (Ac-CRGDNP[Pen]-NH2; disulfide 1-7)
receptor selectivity for αv β3 compared to αv β5 and α5 β1 (αv β3 receptor): particularly receptor selective

CC[C@H](C)[C@@H]1NC(=O)[C@@H](NC(=O)CN)C(C)(C)SSC[C@@H](C(=O)N[C@@H](C)C(=O)O)NC(=O)[C@H](CC(C)C)NC(=O)[C@H](CC(=O)O)NC(=O)[C@H](CC(=O)O)NC(=O)CNC(=O)[C@H](CCCNC(=N)N)NC(=O)[C@H](C)NC1=O [compound 448] (H-G[Pen]IARGDDLCA-OH; disulfide 2-10)
receptor selectivity for αv β3 compared to αv β5 and α5 β1 (αv β3 receptor): particularly receptor selective

CC(=O)N[C@H]1CSSC[C@@H](C(N)=O)NC(=O)[C@@H]2Cc3ccccc3CN2C(=O)[C@H](CO)NC(=O)[C@H](CC(=O)O)NC(=O)CNC(=O)[C@H](CCCNC(=N)N)NC1=O [compound 812, Ac-CRGDS(Tic)C--NH2] (Ac-CRGDS[Tic]C-NH2; disulfide 1-7)
potency (active at a relatively low concentration) [2]: particularly potent
activity (FIG. 2) ([2]; minimally essential elements): demonstrate activity

CC(C)[C@@H]1NC(=O)[C@H](CC(=O)O)NC(=O)[C@H](CC(=O)O)NC(=O)CNC(=O)[C@H](CCCNC(=N)N)NC(=O)[C@H](C)NC(=O)[C@H](C)NC(=O)[C@@H](NC(=O)CN)C(C)(C)SSC[C@@H](C(=O)N[C@@H](C)C(N)=O)NC1=O [compound 814] (H-G[Pen]AARGDDVCA-NH2; disulfide 2-10)
receptor selectivity for αv β3 compared to αv β5 and α5 β1 (αv β3 receptor): receptor selective for αv β3; also recorded: particularly receptor selective

CC(=O)N[C@@H]1C(=O)N[C@@H](Cc2ccccc2)C(=O)N[C@@H](C)C(=O)N[C@@H](CCCNC(=N)N)C(=O)NCC(=O)N[C@@H](CC(=O)O)C(=O)N[C@@H](CC(N)=O)C(=O)N2CCC[C@H]2C(=O)N[C@H](C(N)=O)CSSC1(C)C [peptide 214] (Ac-[Pen]FARGDNPC-NH2; disulfide 1-9)
potency (active at a relatively low concentration) [2]: particularly potent

CC(=O)N[C@@H](Cc1ccccc1)C(=O)N[C@H]1CSSC[C@@H](C(N)=O)NC(=O)[C@H](Cc2ccccc2)NC(=O)[C@H]([C@@H](C)O)NC(=O)[C@H](CC(=O)O)NC(=O)CNC(=O)[C@H](CCCNC(=N)N)NC1=O [peptide 220] (Ac-FCRGDTFC-NH2; disulfide 2-8)
half-life in serum [3]: relatively long half-life in serum

Echistatin
inhibition of bone resorption (osteoclasts): inhibits bone resorption in vitro
inhibition of bone resorption [4]: inhibits bone resorption

G(Pen)GRGDSPCA
inhibition of neointimal hyperplasia (αv β3 integrin receptor): can inhibit neointimal hyperplasia
